Measured values published in the supplement of paper PMC8882468.
± gives the standard deviation of the averaged measurements.

These compounds were tested on HCI-008 (organoid from a HER2-enriched breast cancer xenograft) (assay: CTG-3D luminescence at 96 h relative to day-0 seeding control (ratio to day 0); higher = more growth / less cytotoxicity; PDxO 3D drug screen, 96 h, CTG-3D normalised to day-0 seeding control.). Conditions: 100 µM; days in culture: 228.

Row | SMILES | CTG-3D luminescence at 96 h
1 | O=C(O)C1(C(=O)O)CCC1.[NH2-].[NH2-].[Pt+2] [carboplatin] | 0.0629 ± 0.15
2 | COc1cc2c(Oc3ccc4[nH]c(C)cc4c3F)ncnc2cc1OCCCN1CCCC1 [cediranib] | -0.136 ± 0.19
3 | C[C@@H]1COCCN1c1cc(C2([S@](C)(=N)=O)CC2)nc(-c2cc[nH]c3nccc2-3)n1 [ceralasertib] | 0.212 ± 0.0027
4 | Cc1cc(Nc2ncc(Cl)c(Nc3ccccc3S(=O)(=O)C(C)C)n2)c(OC(C)C)cc1C1CCNCC1 [ceritinib] | -0.142 ± 0.2
5 | O=C(c1ccc(F)c(F)c1Nc1ccc(I)cc1F)N1CC(O)([C@@H]2CCCCN2)C1 [cobimetinib] | -0.00126 ± 0.003
6 | C[C@H](NC(=O)CCC(F)(F)F)C(=O)N[C@@H]1C(=O)N(CCO)c2ncccc2-c2ccccc21 [crenigacestat] | 1.65 ± 0.22
7 | COc1cccc2c1C(=O)c1c(O)c3c(c(O)c1C2=O)C[C@@](O)(C(=O)CO)C[C@@H]3O[C@H]1C[C@H](N)[C@H](O)[C@H](C)O1 [doxorubicin] | 0.0571 ± 0.012
8 | C[C@]12CC[C@@H]3c4ccc(O)cc4C[C@@H](CCCCCCCCC[S+]([O-])CCCC(F)(F)C(F)(F)F)[C@H]3[C@@H]1CC[C@@H]2O (stereo partly specified) [fulvestrant] | 1.29 ± 0.022
9 | Nc1ccn([C@@H]2O[C@H](CO)[C@@H](O)C2(F)F)c(=O)n1 [gemcitabine] | 0.362 ± 0.0099

Same assay, conditions: 100 µM; days in culture: 244

Row | SMILES | CTG-3D luminescence at 96 h
10 | O=C(O)C1(C(=O)O)CCC1.[NH2-].[NH2-].[Pt+2] [carboplatin] | 0.158
11 | COc1cc2c(Oc3ccc4[nH]c(C)cc4c3F)ncnc2cc1OCCCN1CCCC1 [cediranib] | -0.000797
12 | C[C@@H]1COCCN1c1cc(C2([S@](C)(=N)=O)CC2)nc(-c2cc[nH]c3nccc2-3)n1 [ceralasertib] | 0.334
13 | Cc1cc(Nc2ncc(Cl)c(Nc3ccccc3S(=O)(=O)C(C)C)n2)c(OC(C)C)cc1C1CCNCC1 [ceritinib] | -0.00443
14 | O=C(c1ccc(F)c(F)c1Nc1ccc(I)cc1F)N1CC(O)([C@@H]2CCCCN2)C1 [cobimetinib] | 0.000182
15 | C[C@H](NC(=O)CCC(F)(F)F)C(=O)N[C@@H]1C(=O)N(CCO)c2ncccc2-c2ccccc21 [crenigacestat] | 1.38
16 | COc1cccc2c1C(=O)c1c(O)c3c(c(O)c1C2=O)C[C@@](O)(C(=O)CO)C[C@@H]3O[C@H]1C[C@H](N)[C@H](O)[C@H](C)O1 [doxorubicin] | 0.0903
17 | C[C@]12CC[C@@H]3c4ccc(O)cc4C[C@@H](CCCCCCCCC[S+]([O-])CCCC(F)(F)C(F)(F)F)[C@H]3[C@@H]1CC[C@@H]2O (stereo partly specified) [fulvestrant] | 1.66
18 | Nc1ccn([C@@H]2O[C@H](CO)[C@@H](O)C2(F)F)c(=O)n1 [gemcitabine] | 0.465

Same assay, conditions: 625 fM; days in culture: 228

Row | SMILES | CTG-3D luminescence at 96 h
19 | O=C(O)C1(C(=O)O)CCC1.[NH2-].[NH2-].[Pt+2] [carboplatin] | 1.63 ± 0.52
20 | COc1cc2c(Oc3ccc4[nH]c(C)cc4c3F)ncnc2cc1OCCCN1CCCC1 [cediranib] | 1.51 ± 0.11
21 | C[C@@H]1COCCN1c1cc(C2([S@](C)(=N)=O)CC2)nc(-c2cc[nH]c3nccc2-3)n1 [ceralasertib] | 1.72 ± 0.17
22 | Cc1cc(Nc2ncc(Cl)c(Nc3ccccc3S(=O)(=O)C(C)C)n2)c(OC(C)C)cc1C1CCNCC1 [ceritinib] | 1.59 ± 0.23
23 | O=C(c1ccc(F)c(F)c1Nc1ccc(I)cc1F)N1CC(O)([C@@H]2CCCCN2)C1 [cobimetinib] | 1.7 ± 0.47
24 | C[C@H](NC(=O)CCC(F)(F)F)C(=O)N[C@@H]1C(=O)N(CCO)c2ncccc2-c2ccccc21 [crenigacestat] | 1.9 ± 0.12
25 | COc1cccc2c1C(=O)c1c(O)c3c(c(O)c1C2=O)C[C@@](O)(C(=O)CO)C[C@@H]3O[C@H]1C[C@H](N)[C@H](O)[C@H](C)O1 [doxorubicin] | 1.87 ± 0.33
26 | C[C@]12CC[C@@H]3c4ccc(O)cc4C[C@@H](CCCCCCCCC[S+]([O-])CCCC(F)(F)C(F)(F)F)[C@H]3[C@@H]1CC[C@@H]2O (stereo partly specified) [fulvestrant] | 1.89 ± 0.35
27 | Nc1ccn([C@@H]2O[C@H](CO)[C@@H](O)C2(F)F)c(=O)n1 [gemcitabine] | 1.48 ± 0.16

Same assay, conditions: 625 fM; days in culture: 244

Row | SMILES | CTG-3D luminescence at 96 h
28 | O=C(O)C1(C(=O)O)CCC1.[NH2-].[NH2-].[Pt+2] [carboplatin] | 1.98
29 | COc1cc2c(Oc3ccc4[nH]c(C)cc4c3F)ncnc2cc1OCCCN1CCCC1 [cediranib] | 1.95
30 | C[C@@H]1COCCN1c1cc(C2([S@](C)(=N)=O)CC2)nc(-c2cc[nH]c3nccc2-3)n1 [ceralasertib] | 2.35
31 | Cc1cc(Nc2ncc(Cl)c(Nc3ccccc3S(=O)(=O)C(C)C)n2)c(OC(C)C)cc1C1CCNCC1 [ceritinib] | 2.17
32 | O=C(c1ccc(F)c(F)c1Nc1ccc(I)cc1F)N1CC(O)([C@@H]2CCCCN2)C1 [cobimetinib] | 2.25
33 | C[C@H](NC(=O)CCC(F)(F)F)C(=O)N[C@@H]1C(=O)N(CCO)c2ncccc2-c2ccccc21 [crenigacestat] | 1.79
34 | COc1cccc2c1C(=O)c1c(O)c3c(c(O)c1C2=O)C[C@@](O)(C(=O)CO)C[C@@H]3O[C@H]1C[C@H](N)[C@H](O)[C@H](C)O1 [doxorubicin] | 2.37
35 | C[C@]12CC[C@@H]3c4ccc(O)cc4C[C@@H](CCCCCCCCC[S+]([O-])CCCC(F)(F)C(F)(F)F)[C@H]3[C@@H]1CC[C@@H]2O (stereo partly specified) [fulvestrant] | 2.27
36 | Nc1ccn([C@@H]2O[C@H](CO)[C@@H](O)C2(F)F)c(=O)n1 [gemcitabine] | 2.18
